Experimental data published in PMC9837035 (Nature Communications, 2023).
Several values for one entry are separate records, joined by “and”; a condition that tells them apart may be missing. Equal entries are not always repeated. Where two headings read alike, the source gives them in different places.

What was measured:
H3K9me2 in CD34+ cells = assay: Western blotting of H3K9me2 in CD34+ cells; type: cell-based, human
Procedure: HUDEP-2 cells and HiDEP-1 cells were grown in Stemline II Hematopoietic Stem Cell Expansion Medium (Sigma) supplemented with 50 ng/mL recombinant stem cell factor (SCF; R&D systems), 3 IU/mL recombinant erythropoietin (EPO; Kyowa Kirin), 1 μM dexamethasone (Dex; Sigma), and 1 μg/mL doxycycline (Sigma). A total of 1 × 10^5 human CD34^+ progenitor cells derived from bone marrow or peripheral blood (Lonza) were cultured on 35-mm dishes (BD Falcon) in StemSpan SFEMII medium with 50 ng/mL SCF, 5 IU/mL EPO, and 10 ng /mL interleukin 3 (IL-3; R&D systems). The medium was changed on day 4 to SCF, EPO, and 1 μM Dex, and the cells were transferred to 60-mm dishes (BD Falcon). Seven days after the onset of differentiation, cells were counted and 1 × 10^6 cells were re-plated on 100-mm dishes (BD Falcon) with SCF, EPO, and Dex. The rat myoblast cell line H9c2, HEK293T, and PLAT-E cells were maintained in Dulbecco’s modified Eagle’s medium (Thermo Fisher Scientific) supplemented with 10% heat-inactivated fetal bovine serum (FBS) and penicillin/streptomycin. All cells were cultured at 37 °C under 5% CO2.
Preparation of cell lysates and western blotting were performed as described previously. […] The immune complexes were detected with the Immobilon Western Chemiluminescent HRP Substrate (Millipore). Luminescence was analyzed on a FUSION SOLO S (Vilber). […]

DOT1L = molecular target: T1, DOT1L (Homo sapiens, UniProt Q8TEK3); assay: Radioisotope-based methyltransferase assay (selectivity); type: biochemical
T1 construct: purchased Reaction Biology

[1] = Pharmacokinetic (PK) assay; type: in vivo, mice
Procedure: PK studies were performed using 8-week-old male Crl:CD1 ICR mice in accordance with the animal experimental protocol, and procedures were approved by the Animal Care and Ethics Committee of Sekisui Medical. […] […] RK-701 in samples were analyzed by liquid chromatography-tandem mass spectrometry (LC–MS/MS) after deproteinization with acetonitrile. […] PK parameters were calculated using the program Phenix WinNolin (Certara).
The LC-MS/MS system comprised of ACQUITY Ultra Performance LC (Waters) and 4000 QTRAP (Sciex). Acquity UPLC BEH C18 (2.1 × 50 mm, 1.7 μm, Waters) was used as analytical column. The mobile phase consisted of 0.1% formic acid in water (mobile phase A) and acetonitrile (mobile phase B) at a total flow rate of 0.5 mL/min with a column temperature of 40 °C. The chromatographic separation was achieved using gradient elution. The gradient program was: 20% B from 0.0–0.1 min, 20–95% B from 0.1–1.5 min, 95–95% B from 1.5–2.0 min, and 20% B from 2.01–3.0 min. The MS/MS instrument was operated in positive-ion mode with an ion spray voltage of 4200 V, entrance potential of 10 V and source temperature at 600 °C. The curtain gas was set at 12 psi, ion source gas 1 at 40 psi, ion source gas 2 at 50 psi. […] Data acquisition and quantitation were performed by using Analyst (ver.1.4.3, Sciex).

[2] = Liver microsomal stability assay, human; type: in vitro ADME; settings: for Metabolic stability, % remaining of RK-701: Human
Procedure: (§1) [Human/Rat] Liver microsome analyses (human, rat) were performed in triplicate by the Sumika Chemical Analysis Service (SCAS) according to the standard protocols. […] [Dog/Monkey] Liver microsome analyses (dog, monkey) were performed in duplicate by RIKEN according to the same protocols as SCAS.

[3] = Liver microsomal stability assay, monkey; type: in vitro ADME; settings: for Metabolic stability, % remaining of RK-701: Monkey
Procedure: as §1

NSD2 = NSD2 (Homo sapiens, UniProt O96028)
NSD2 (T1150A) = NSD2 (T1150A) (Homo sapiens, UniProt O96028, T1150A)
PRMT6 = PRMT6 (Homo sapiens, UniProt Q96LA8)
PRMT1 = PRMT1 (Homo sapiens, UniProt Q99873); assay: Radioisotope-based methyltransferase assay (selectivity)
[4] = male, Crl:CD1 ICR, mouse, ip, mice, plasma, single intraperitoneal 25 mg/kg

T1 sequence (Q8TEK3 whole entry): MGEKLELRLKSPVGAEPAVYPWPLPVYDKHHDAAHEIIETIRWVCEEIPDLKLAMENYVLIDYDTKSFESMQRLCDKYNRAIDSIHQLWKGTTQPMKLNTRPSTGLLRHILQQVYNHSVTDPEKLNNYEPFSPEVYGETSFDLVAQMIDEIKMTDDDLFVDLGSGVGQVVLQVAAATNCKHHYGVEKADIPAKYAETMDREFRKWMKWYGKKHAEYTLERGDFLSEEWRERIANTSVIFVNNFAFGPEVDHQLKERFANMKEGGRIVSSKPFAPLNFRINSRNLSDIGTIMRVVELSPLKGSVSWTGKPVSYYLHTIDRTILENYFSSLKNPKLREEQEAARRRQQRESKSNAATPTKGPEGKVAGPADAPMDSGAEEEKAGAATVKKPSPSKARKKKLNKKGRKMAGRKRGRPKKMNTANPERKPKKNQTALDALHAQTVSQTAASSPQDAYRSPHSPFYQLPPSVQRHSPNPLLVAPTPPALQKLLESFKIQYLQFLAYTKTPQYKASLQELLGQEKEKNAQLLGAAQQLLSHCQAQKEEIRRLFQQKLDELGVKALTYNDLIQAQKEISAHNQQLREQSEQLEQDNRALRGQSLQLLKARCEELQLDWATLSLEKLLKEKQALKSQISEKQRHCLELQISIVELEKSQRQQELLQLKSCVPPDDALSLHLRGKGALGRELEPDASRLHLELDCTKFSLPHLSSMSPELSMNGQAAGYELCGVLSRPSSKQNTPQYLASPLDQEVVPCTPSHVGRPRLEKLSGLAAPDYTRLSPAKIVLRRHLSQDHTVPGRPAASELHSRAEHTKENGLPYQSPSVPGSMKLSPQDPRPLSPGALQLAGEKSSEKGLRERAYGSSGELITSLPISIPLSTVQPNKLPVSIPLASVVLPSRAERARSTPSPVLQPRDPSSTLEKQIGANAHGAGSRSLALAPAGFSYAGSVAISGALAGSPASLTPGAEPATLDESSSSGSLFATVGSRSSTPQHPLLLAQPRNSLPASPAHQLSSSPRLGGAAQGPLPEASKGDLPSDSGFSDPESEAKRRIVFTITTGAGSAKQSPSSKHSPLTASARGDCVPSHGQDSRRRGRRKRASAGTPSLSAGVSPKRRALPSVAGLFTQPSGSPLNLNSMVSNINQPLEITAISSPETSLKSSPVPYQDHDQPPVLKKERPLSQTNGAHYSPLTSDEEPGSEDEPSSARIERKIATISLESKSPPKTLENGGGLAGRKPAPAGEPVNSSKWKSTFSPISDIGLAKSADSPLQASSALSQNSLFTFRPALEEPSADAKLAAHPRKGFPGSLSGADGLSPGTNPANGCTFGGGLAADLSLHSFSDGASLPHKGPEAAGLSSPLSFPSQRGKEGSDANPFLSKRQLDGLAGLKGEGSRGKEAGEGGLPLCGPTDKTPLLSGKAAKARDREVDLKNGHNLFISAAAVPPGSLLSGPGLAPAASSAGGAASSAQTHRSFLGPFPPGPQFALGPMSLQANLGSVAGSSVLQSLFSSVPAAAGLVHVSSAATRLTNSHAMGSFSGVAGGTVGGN
NSD2, sequence (O96028 whole entry): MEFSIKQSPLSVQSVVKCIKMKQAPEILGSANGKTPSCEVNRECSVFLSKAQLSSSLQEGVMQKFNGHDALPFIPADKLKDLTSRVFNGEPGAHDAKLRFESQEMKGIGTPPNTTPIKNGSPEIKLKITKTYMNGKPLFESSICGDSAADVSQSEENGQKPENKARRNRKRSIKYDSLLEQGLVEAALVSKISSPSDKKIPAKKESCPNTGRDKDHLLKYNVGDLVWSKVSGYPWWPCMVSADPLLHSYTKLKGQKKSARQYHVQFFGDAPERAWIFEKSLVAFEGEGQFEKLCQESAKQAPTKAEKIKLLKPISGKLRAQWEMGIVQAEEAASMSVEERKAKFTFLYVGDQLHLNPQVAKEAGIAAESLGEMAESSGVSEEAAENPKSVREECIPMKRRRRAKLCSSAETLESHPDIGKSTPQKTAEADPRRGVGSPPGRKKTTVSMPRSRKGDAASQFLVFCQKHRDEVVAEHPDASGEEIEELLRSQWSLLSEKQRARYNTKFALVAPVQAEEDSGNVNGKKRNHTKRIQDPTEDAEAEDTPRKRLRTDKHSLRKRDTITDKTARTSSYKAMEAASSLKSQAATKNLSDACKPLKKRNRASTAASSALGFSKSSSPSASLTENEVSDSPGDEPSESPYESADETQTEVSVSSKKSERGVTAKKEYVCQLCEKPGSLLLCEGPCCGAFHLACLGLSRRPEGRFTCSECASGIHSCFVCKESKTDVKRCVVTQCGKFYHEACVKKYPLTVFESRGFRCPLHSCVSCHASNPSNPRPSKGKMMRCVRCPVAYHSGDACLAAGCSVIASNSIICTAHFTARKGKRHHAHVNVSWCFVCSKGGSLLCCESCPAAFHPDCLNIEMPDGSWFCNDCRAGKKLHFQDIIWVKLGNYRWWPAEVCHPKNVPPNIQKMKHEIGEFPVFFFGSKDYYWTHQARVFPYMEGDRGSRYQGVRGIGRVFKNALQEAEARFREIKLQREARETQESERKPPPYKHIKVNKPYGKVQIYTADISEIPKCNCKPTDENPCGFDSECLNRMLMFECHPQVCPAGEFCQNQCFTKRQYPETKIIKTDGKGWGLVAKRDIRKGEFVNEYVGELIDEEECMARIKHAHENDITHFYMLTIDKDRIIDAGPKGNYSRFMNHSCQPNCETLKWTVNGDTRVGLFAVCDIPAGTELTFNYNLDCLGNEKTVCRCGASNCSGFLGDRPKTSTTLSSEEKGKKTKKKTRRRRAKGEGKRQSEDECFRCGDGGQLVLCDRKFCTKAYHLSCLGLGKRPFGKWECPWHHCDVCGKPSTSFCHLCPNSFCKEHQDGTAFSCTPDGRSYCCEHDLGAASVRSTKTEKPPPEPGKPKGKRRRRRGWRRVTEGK
PRMT6, sequence (Q96LA8 whole entry): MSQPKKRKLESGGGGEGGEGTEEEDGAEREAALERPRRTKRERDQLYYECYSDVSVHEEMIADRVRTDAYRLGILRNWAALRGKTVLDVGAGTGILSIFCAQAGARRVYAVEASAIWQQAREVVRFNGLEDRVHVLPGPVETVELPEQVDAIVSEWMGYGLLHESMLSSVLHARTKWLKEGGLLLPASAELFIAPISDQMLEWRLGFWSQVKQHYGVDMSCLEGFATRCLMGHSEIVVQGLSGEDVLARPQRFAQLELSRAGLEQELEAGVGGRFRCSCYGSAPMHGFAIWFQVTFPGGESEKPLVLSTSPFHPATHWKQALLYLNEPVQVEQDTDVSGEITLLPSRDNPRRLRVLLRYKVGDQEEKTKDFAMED
NSD2 (T1150A), sequence (O96028 whole entry T1150A): as the sequence (O96028 whole entry) above, with T1150A counted along it
PRMT1, sequence (Q99873 whole entry): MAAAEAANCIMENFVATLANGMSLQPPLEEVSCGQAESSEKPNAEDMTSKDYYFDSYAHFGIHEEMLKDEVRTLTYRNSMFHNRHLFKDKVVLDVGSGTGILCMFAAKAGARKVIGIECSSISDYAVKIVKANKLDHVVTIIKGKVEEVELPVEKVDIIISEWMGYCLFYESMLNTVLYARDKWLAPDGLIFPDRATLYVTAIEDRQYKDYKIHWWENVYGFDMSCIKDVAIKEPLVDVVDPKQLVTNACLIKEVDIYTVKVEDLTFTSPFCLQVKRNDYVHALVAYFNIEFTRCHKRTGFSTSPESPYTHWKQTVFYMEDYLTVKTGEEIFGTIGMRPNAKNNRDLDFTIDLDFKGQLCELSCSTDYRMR

NC(=O)NO [Hydroxyurea, hydroxyurea]
H3K9me2 level (H3K9me2 in CD34+ cells): did not affect the H3K9me2 level

Cc1c(C(=O)NC(CCC2CC2)C(=O)Nc2ccc(C#N)cc2)[nH]c2c1C(=O)CC(C)(C)C2 (centres unmarked) [RK-701]
IC50 (DOT1L; 1 μM SAM): > 100 µM
IC50 (DOT1L; RK-701 in duplicate): > 100 µM
concentration at 1 h ([1]; Time 1 h, read-out: concentration (pharmacokinetic properties)): 17.9827 µM and 11.6451 µM
concentration at 1 h ([1]; Time 2 h, read-out: concentration (pharmacokinetic properties)): 17.6692 µM and 34.4874 µM
concentration at 1 h ([1]; Time 4 h, read-out: concentration (pharmacokinetic properties)): 51.2832 µM and 42.7733 µM
concentration at 1 h ([1]; Time 8 h, read-out: concentration (pharmacokinetic properties)): 20.155 µM and 23.2902 µM
AUC(0-inf) [1, 4]: 418 ± 7 µM·h
Cmax [1, 4]: 42.4 µM
Tmax [1, 4]: 4 h
half-life [1, 4]: 84 ± 6 min
concentration at 1 h ([1]; male, Crl:CD1 ICR, mouse, plasma, intraperitoneal, 25 mg/kg, Time 1 h, read-out: concentration (pharmacokinetic properties)): 9.2 µM
concentration at 2 h ([1]; male, Crl:CD1 ICR, mouse, plasma, intraperitoneal, 25 mg/kg, Time 2 h, read-out: concentration (pharmacokinetic properties)): 25.8 µM
concentration at 4 h ([1]; male, Crl:CD1 ICR, mouse, plasma, intraperitoneal, 25 mg/kg, Time 4 h, read-out: concentration (pharmacokinetic properties)): 33.1 µM
concentration at 8 h ([1]; male, Crl:CD1 ICR, mouse, plasma, intraperitoneal, 25 mg/kg, Time 8 h, read-out: concentration (pharmacokinetic properties)): 28.2 µM
Metabolic stability, % remaining of RK-701 ([2]; Time 5, replicate values): 103.5% and 98.1%
Metabolic stability, % remaining of RK-701 ([2]; Time 10, replicate values): 104.9% and 98.1%
Metabolic stability, % remaining of RK-701 ([2]; Time 20, replicate values): 89.6% and 79.6%
Metabolic stability, % remaining of RK-701 ([2]; Time 30, replicate values): 78.5% and 70.7%
Metabolic stability, % remaining of RK-701 ([2]; Time 60, replicate values): 68.6% and 60.8%
remaining at 5 min, 1 µM ([2]; human, liver microsomes, Metabolic stability, % remaining of RK-701, Human, Time 5, replicate values): 93.1%
remaining at 10 min, 1 µM ([2]; human, liver microsomes, Metabolic stability, % remaining of RK-701, Human, Time 10, replicate values): 95.5%
remaining at 20 min, 1 µM ([2]; human, liver microsomes, Metabolic stability, % remaining of RK-701, Human, Time 20, replicate values): 80.5%
remaining at 30 min, 1 µM ([2]; human, liver microsomes, Metabolic stability, % remaining of RK-701, Human, Time 30, replicate values): 70.4%
remaining at 60 min, 1 µM ([2]; human, liver microsomes, Metabolic stability, % remaining of RK-701, Human, Time 60, replicate values): 62.1%
microsomal CLint at 1 μM ([2]; human, liver microsomes, read-out: Metabolic stability in liver microsomes CLint): 19 µL/min/mg
stability in liver microsomes ([2]; various species): most stable in human liver microsomes
Metabolic stability, % remaining of RK-701 ([3]; Time 5, replicate values): 117%
Metabolic stability, % remaining of RK-701 ([3]; Time 10, replicate values): 94.6%
Metabolic stability, % remaining of RK-701 ([3]; Time 20, replicate values): 60%
Metabolic stability, % remaining of RK-701 ([3]; Time 30, replicate values): 44.3%
Metabolic stability, % remaining of RK-701 ([3]; Time 45, replicate values): 26%
Metabolic stability, % remaining of RK-701 ([3]; Time 60, replicate values): 19.4%
remaining at 5 min, 1 µM ([3]; monkey, liver microsomes, Metabolic stability, % remaining of RK-701, Monkey, Time 5, replicate values): 106%
remaining at 10 min, 1 µM ([3]; monkey, liver microsomes, Metabolic stability, % remaining of RK-701, Monkey, Time 10, replicate values): 85.8%
remaining at 20 min, 1 µM ([3]; monkey, liver microsomes, Metabolic stability, % remaining of RK-701, Monkey, Time 20, replicate values): 57.4%
remaining at 30 min, 1 µM ([3]; monkey, liver microsomes, Metabolic stability, % remaining of RK-701, Monkey, Time 30, replicate values): 42.4%
remaining at 45 min, 1 µM ([3]; monkey, liver microsomes, Metabolic stability, % remaining of RK-701, Monkey, Time 45, replicate values): 24.2%
remaining at 60 min, 1 µM ([3]; monkey, liver microsomes, Metabolic stability, % remaining of RK-701, Monkey, Time 60, replicate values): 16.8%
microsomal CLint at 1 μM ([3]; monkey, liver microsomes, read-out: Metabolic stability in liver microsomes CLint): 67 µL/min/mg
IC50 (NSD2): > 100 µM
IC50 (NSD2 (T1150A)): > 100 µM
IC50 (PRMT6): > 100 µM
IC50 (PRMT1): > 100 µM
